In assay [1] the test system is LxD (RNA, aptamer) GGGCAACUCCAAGCUAGAUCUACCGGUCUAGUGCCUCAACUAGCCGAACCGUGGUCGUCUUCAUGCCUACUGGCUUCUACGAGAUAAAUAAAAUGGCUAGCAAAGGAGAAGAACUUUUCACU
The assay is described as follows: elution from immobilised Capture-ON. The following applies: 0.25 mM K+, 20 mM Na+, 5 mM Mg2+, 1x CSB (40 mM HEPES pH 7.4), DNA Capture-ON displaced.

Assay [2] concerns LxC (RNA, aptamer) GGGCAACUCCAAGCUAGAUCUACCGGUUUGGGUAGUGCGAUUCGCACUGAAUGCCGCGUAGGCUUCGCUACUGGCUUCUACUACGUACCCAAAAUGGCUAGCAAAGGAGAAGAACUUUUCACU
The assay is described as follows: elution from immobilised Capture-ON. The following applies: 0.25 mM K+, 20 mM Na+, 5 mM Mg2+, 1x CSB (40 mM HEPES pH 7.4), DNA Capture-ON displaced.

The subject of assay [3] is LxCsh (RNA, aptamer) GGGUUUGGGUAGUGCGAUUCGCACUGAAUGCCGCGUAGGCUUCGCUACUGGCUUCUACUACGUACCCAAACCC
The assay is described as follows: lateral flow assay, Capture-ON displacement. The following applies: 0.25 mM K+, 20 mM Na+, 5 mM Mg2+, 1x CSB (40 mM HEPES pH 7.4), room temperature, 6FAM Capture-ON displaced.

In assay [4] the test system is LxB2 (RNA, aptamer) GGGCAACUCCAAGCUAGAUCUACCGGUGUGUAACGGAAGCACAAAGGUGCCUCCUACAGCAGGUCUUCUACUGGCUUCUACUGAUACGCUAAAAUGGCUAGCAAAGGAGAAGAACUUUUCACU
Kind of assay: elution from immobilised Capture-ON. To be noted: 0.25 mM K+, 20 mM Na+, 5 mM Mg2+, 1x CSB (40 mM HEPES pH 7.4), DNA Capture-ON displaced.

Assay [5] deals with LxB1 (RNA, aptamer) GGGCAACUCCAAGCUAGAUCUACCGGUGUGUAACGGAAGCACAAAGGUGCCUCCUACAGCAGGUCUUCUACUGGCUUCUACUGAUACACUAAAAUGGCUAGCAAAGGAGAAGAACUUUUCACU
Kind of assay: elution from immobilised Capture-ON. To be noted: 0.25 mM K+, 20 mM Na+, 5 mM Mg2+, 1x CSB (40 mM HEPES pH 7.4), DNA Capture-ON displaced.

Assay [6] has as its system LxC (RNA, aptamer) GGGCAACUCCAAGCUAGAUCUACCGGUUUGGGUAGUGCGAUUCGCACUGAAUGCCGCGUAGGCUUCGCUACUGGCUUCUACUACGUACCCAAAAUGGCUAGCAAAGGAGAAGAACUUUUCACU
Kind of assay: ITC. The following applies: 0.25 mM K+, 20 mM Na+, 5 mM Mg2+; 1x CSB (40 mM HEPES pH 7.4), 25 °C; 30 µM RNA, 500 µM LFX; one-site model.

The test system of assay [7] is LxE (RNA, aptamer) GGGCAACUCCAAGCUAGAUCUACCGGUCGUAGUGGACCUGUUUAGGUUUGCAUACGUUAGAUGUCUUCUACUGGCUUCUAAAUCGAACCGAAAAUGGCUAGCAAAGGAGAAGAACUUUUCACU
Kind of assay: elution from immobilised Capture-ON. The following applies: 0.25 mM K+, 20 mM Na+, 5 mM Mg2+; 1x CSB (40 mM HEPES pH 7.4); 1 mM LFX; DNA Capture-ON displaced.

Assay [8] relates to LxCsh (RNA, aptamer) GGGUUUGGGUAGUGCGAUUCGCACUGAAUGCCGCGUAGGCUUCGCUACUGGCUUCUACUACGUACCCAAACCC
Kind of assay: ITC. The following applies: 0.25 mM K+, 20 mM Na+, 5 mM Mg2+; 1x CSB (40 mM HEPES pH 7.4), 25 °C; 30 µM RNA, 500 µM LFX; one-site model.

For assay [9], the system named is M10 (RNA, aptamer) GGGUUUGGGUAGUGCGAUUCGCACUGAAUGCCGCGUAGUUCGCUACUGGCUUCUACUACGUACCCAAACCC
The assay is described as follows: ITC. The following applies: 0.25 mM K+, 20 mM Na+, 5 mM Mg2+; 1x CSB (40 mM HEPES pH 7.4), 25 °C; 30 µM RNA, 500 µM LFX in syringe.

Assay [10] relates to M14 (RNA, aptamer) GGGCGCACUGAAUGCCGCGUAGGCUUCGCUACUGGCUUCUACUACGUAUAGUGCGCCC
The assay is described as follows: ITC. The following applies: 0.25 mM K+, 20 mM Na+, 5 mM Mg2+; 1x CSB (40 mM HEPES pH 7.4), 25 °C; 30 µM RNA, 500 µM LFX in syringe.

The subject of assay [11] is M8 (RNA, aptamer) GGGUUUGGGUAGUCGAUUCGACUGAAUGCCGCGUAGGCUUCGCUACUGGCUUCUACUACGUACCCAAACCC
The assay is described as follows: ITC. To be noted: 0.25 mM K+, 20 mM Na+, 5 mM Mg2+; 1x CSB (40 mM HEPES pH 7.4), 25 °C; 30 µM RNA, 500 µM LFX; one-site model.

The test system of assay [12] is M6 (RNA, aptamer) GGGUUUGGGUAGCGAUUCGCUGAAUGCCGCGUAGGCUUCGCUACUGGCUUCUACUACGUACCCAAACCC
The assay is described as follows: ITC. The following applies: 0.25 mM K+, 20 mM Na+, 5 mM Mg2+; 1x CSB (40 mM HEPES pH 7.4), 25 °C; 30 µM RNA, 500 µM LFX in syringe.

In assay [13] the test system is M2 (RNA, aptamer) GGGUUUGCGUAGUGCGAUUCGCACUGAAUGCCGCGUAGGCUUCGCUACUGGCUUCUACUACGUACGCAAACCC
The assay is described as follows: ITC. To be noted: 0.25 mM K+, 20 mM Na+, 5 mM Mg2+; 1x CSB (40 mM HEPES pH 7.4), 25 °C; 30 µM RNA, 500 µM LFX; one-site model.

Assay [14] deals with M13 (RNA, aptamer) GGGUUUGGGUAGAAUGCCGCGUAGGCUUCGCUACUGGCUUCUACUACGUACCCAAACCC
The assay is described as follows: ITC. To be noted: 0.25 mM K+, 20 mM Na+, 5 mM Mg2+; 1x CSB (40 mM HEPES pH 7.4), 25 °C; 30 µM RNA, 500 µM LFX in syringe.

In assay [15] the test system is M1 (RNA, aptamer) GGGUAUGGGUAGUGCGAUUCGCACUGAAUGCCGCGUAGGCUUCGCUACUGGCUUCUACUACGUACCCAUACCC
Kind of assay: ITC. To be noted: 0.25 mM K+, 20 mM Na+, 5 mM Mg2+; 1x CSB (40 mM HEPES pH 7.4), 25 °C; 30 µM RNA, 500 µM LFX; one-site model.

Assay [16] relates to M11 (RNA, aptamer) GGGUUUGGGUAGUGCGAUUCGCACUGAAUGCUUCGGCUUCUACUACGUACCCAAACCC
Kind of assay: ITC. The following applies: 0.25 mM K+, 20 mM Na+, 5 mM Mg2+; 1x CSB (40 mM HEPES pH 7.4), 25 °C; 30 µM RNA, 500 µM LFX in syringe.

For assay [17], the system named is M12 (RNA, aptamer) GGGUUUGGGUGAAUGCCGCGUAGGCUUCGCUACUGGCUUCUACUACGUACCCAAACCC
The assay is described as follows: ITC. The following applies: 0.25 mM K+, 20 mM Na+, 5 mM Mg2+; 1x CSB (40 mM HEPES pH 7.4), 25 °C; 30 µM RNA, 500 µM LFX in syringe.

Assay [18] concerns M4 (RNA, aptamer) GGGUUUGGGUAGUGCGAUUCGCACUGAAUGCCGGUAGGCUUCGCUACUGGCUUCUACUACGUACCCAAACCC
Kind of assay: ITC. The following applies: 0.25 mM K+, 20 mM Na+, 5 mM Mg2+; 1x CSB (40 mM HEPES pH 7.4), 25 °C; 30 µM RNA, 500 µM LFX in syringe.

Assay [19] relates to M9 (RNA, aptamer) GGGUUUGGGUAGUCGUUCGCGACUGAAUGCCGCGUAGGCUUCGCUACUGGCUUCUACUACGUACCCAAACCC
Kind of assay: ITC. To be noted: 0.25 mM K+, 20 mM Na+, 5 mM Mg2+; 1x CSB (40 mM HEPES pH 7.4), 25 °C; 30 µM RNA, 500 µM LFX; one-site model.

For assay [20], the system named is LxA1 (RNA, aptamer) GGGCAACUCCAAGCUAGAUCUACCGGUUUUUUCAGGCGGCUUAAAAACCAGGAAAGGUGGAGACUUCUACUGGCUUCUAUCCAGCCGGUAAAAUGGCUAGCAAAGGAGAAGAACUUUUCACU
Kind of assay: elution from immobilised Capture-ON. The following applies: 0.25 mM K+, 20 mM Na+, 5 mM Mg2+; 1x CSB (40 mM HEPES pH 7.4); 1 mM LFX; DNA Capture-ON displaced.

The subject of assay [21] is M7 (RNA, aptamer) GGGUUUGGGUAUGAAUGCCGCGUAGGCUUCGCUACUGGCUUCUACUACGUACCCAAACCC
The assay is described as follows: ITC. To be noted: 0.25 mM K+, 20 mM Na+, 5 mM Mg2+; 1x CSB (40 mM HEPES pH 7.4), 25 °C; 30 µM RNA, 500 µM LFX in syringe.

The test system of assay [22] is LxA2 (RNA, aptamer) GGGCAACUCCAAGCUAGAUCUACCGGUUUUUUCUGGCGGCUUAAAAACCAGGAAAGGUGGAGACUUCUACUGGCUUCUAUCCAGCCGGUAAAAUGGCUAGCAAAGGAGAAGAACUUUUCACU
The assay is described as follows: elution from immobilised Capture-ON. The following applies: 0.25 mM K+, 20 mM Na+, 5 mM Mg2+; 1x CSB (40 mM HEPES pH 7.4); 1 mM LFX; DNA Capture-ON displaced.

The subject of assay [23] is M5 (RNA, aptamer) GGGUUUGGGUAGUUUCGACUGAAUGCCGCGUAGGCUUCGCUACUGGCUUCUACUACGUACCCAAACCC
The assay is described as follows: ITC. To be noted: 0.25 mM K+, 20 mM Na+, 5 mM Mg2+; 1x CSB (40 mM HEPES pH 7.4), 25 °C; 30 µM RNA, 500 µM LFX in syringe.

Assay [24] relates to LxF (RNA, aptamer) GGGCAACUCCAAGCUAGAUCUACCGGUGCAGGUCUGGGAACUCGUUCCCGGCUCCAGCUGGAUUCUUCUACUGGCUUCUAGCCCGACCGGAAAAUGGCUAGCAAAGGAGAAGAACUUUUCACU
Kind of assay: elution from immobilised Capture-ON. The following applies: 0.25 mM K+, 20 mM Na+, 5 mM Mg2+; 1x CSB (40 mM HEPES pH 7.4); 1 mM LFX; DNA Capture-ON displaced.

For assay [25], the system named is M3 (RNA, aptamer) GGGUUUGGGUAGUGCGAUUCGCACUGAAGCCGCGUAGGCUUCGCUACUGGCUUCUACUACGUACCCAAACCC
The assay is described as follows: ITC. To be noted: 0.25 mM K+, 20 mM Na+, 5 mM Mg2+; 1x CSB (40 mM HEPES pH 7.4), 25 °C; 30 µM RNA, 500 µM LFX in syringe.

The source of these data is paper PMC10813692 (2024).

Regarding `O=C(O)c1cn(C2CC2)c2cc(N3CCNCC3)c(F)cc2c1=O`, the binding result is reported as “weak” in assay [1] (1 mM CFX, LFX/CFX elution ratio 2.6); “weak” in assay [2] (1 mM CFX, LFX/CFX elution ratio 3.2); “weak” in assay [3] (up to 5000 µM); “weak” in [4] (1 mM CFX, LFX/CFX elution ratio 2.1); “weak” in assay [5] (1 mM CFX, LFX/CFX elution ratio 2.2).
On to `C[C@H]1COc2c(N3CCN(C)CC3)c(F)cc3c(=O)c(C(=O)O)cn1c23`, for which the Kd in [6] is 6 µM; in [8] it was 6 µM; in assay [11], 6 ± 3 µM; in assay [13] it was 4 ± 1 µM; in [15] it was 5 ± 6 µM; in assay [19], 3 ± 3 µM. Also, the binding result in assay [7] is on record as “yes”; in assay [9] it was “no”; in assay [10] it was “no”; in assay [12] it was “no”; in assay [3] (signal at 100 µM and above), “yes”; in [14], “no”. Moreover, the binding result is given as “yes” in assay [4] (1 mM LFX); “no” in assay [16]; “no” in assay [17]; “no” in assay [18]; “yes” in [20]; “no” in [21]. For the same compound, the binding entry in [22] is on record as “yes”; in [23] it was “no”; in assay [5] (1 mM LFX), “yes”; in assay [24], “yes”; in [25] it was “no”. The fraction eluted came to 47.3% in assay [1] (1 mM LFX) and 27.4% in assay [2] (1 mM LFX).
